Experimental data as given in US10034886B2, “GLP-1 receptor modulators” (Celgene International II SÀRL, priority 2014, dated 2018).
pEC50: −log10 of the molar value.

target: T1, GLP-1R (Homo sapiens, UniProt P43220); test: EC20 GLP-1(9-36) PAM cAMP assay: dose response of compound in the presence of fixed concentration of GLP-1(9-36); format: cell-based; settings: GLP-1R CRE-bla CHO-K1 cells, compound dose response with fixed concentration of GLP-1(9-36), read-out: EC20 GLP-1(9-36) PAM EC50
T1 construct: host or cells: GLP-1R CRE-bla CHO-K1 cells
Procedure, shortened: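 Positive allosteric modulation read as cAMP accumulation: compound titrations (12 points) combined with an EC20 level of GLP-1(9-36) on CHO-K1 GLP-1R CRE-bla cells, IBMX present, 30 min, 37 °C, pH 7.4 buffer. Luminescence converted to cAMP via standards; non-linear fit gave EC50 and Emax.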

T1 sequence (P43220 24-463): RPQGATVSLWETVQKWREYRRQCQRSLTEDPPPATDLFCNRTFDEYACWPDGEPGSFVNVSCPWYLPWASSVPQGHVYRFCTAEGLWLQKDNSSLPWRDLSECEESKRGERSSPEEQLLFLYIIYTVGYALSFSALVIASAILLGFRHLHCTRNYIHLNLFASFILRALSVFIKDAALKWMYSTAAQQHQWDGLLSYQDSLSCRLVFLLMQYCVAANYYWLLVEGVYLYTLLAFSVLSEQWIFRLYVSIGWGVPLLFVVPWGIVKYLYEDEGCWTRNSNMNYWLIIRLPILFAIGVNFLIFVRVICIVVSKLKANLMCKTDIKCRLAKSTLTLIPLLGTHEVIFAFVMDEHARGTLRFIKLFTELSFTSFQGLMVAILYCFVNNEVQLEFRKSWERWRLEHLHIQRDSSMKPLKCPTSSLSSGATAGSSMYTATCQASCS
T1 sequence (P01275 100-127 partner limits assumed): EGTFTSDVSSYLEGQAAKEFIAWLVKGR

pEC50 | Structure (SMILES)
> 6.10 | Cc1ccc(-c2ccc(-c3cnc(-c4ccc(C[C@H](NC(=O)c5ccc(C(C)(C)C)s5)C(=O)N5CC(C(=O)O)C5)cc4)nc3)c(F)c2)c(F)c1 [Compound 1204]
5.60 to 6.10 | CCCOc1ccc(C(=O)N[C@@H](Cc2ccc(-c3ncc(-c4ccc([C@H]5CC[C@H](CC)CC5)cc4)cn3)cc2)C(=O)O)cc1 [Compound 1377]
5.60 to 6.10 | C[C@@H](NC(=O)[C@H](Cc1ccc(-c2ncc(-c3ccc(-c4ccc(C(C)(C)C)cc4)cc3)cn2)cc1)NC(=O)c1ccc(C(C)(C)C)s1)C(=O)O [Compound 1312]
> 6.10 | CC(C)(C)c1ccc(C(=O)N[C@@H](Cc2ccc(-c3ncc(N4CCC(C5CCCCC5)CC4)cn3)cc2)C(=O)N2CC(C(=O)O)C2)s1 [Compound 1431]
> 6.10 | CCCc1ccc(-c2ccc(-c3cnc(-c4ccc(C[C@H](NC(=O)c5ccc(CC)s5)C(=O)N5CC(C(=O)O)C5)cc4)nc3)c(F)c2)cc1 [Compound 1397]
> 6.10 | CC(C)(C)c1ccc(C(=O)N[C@@H](Cc2ccc(-c3ncc(-c4ccc(-c5ccc(C(F)(F)F)cc5F)cc4F)cn3)cc2)C(=O)N2CC(C(=O)O)C2)s1 [Compound 1222]
> 6.10 | CCC[C@H]1CC[C@H](C2CCN(c3cnc(-c4ccc(C[C@H](NC(=O)c5ccc(C(C)(C)C)s5)C(=O)N[C@H](CC(N)=O)C(=O)O)cc4)nc3)CC2)CC1 [Compound 1460]
> 6.10 | CC[C@H]1CC[C@@H](c2ccc(-c3cnc(-c4ccc(C[C@H](NC(=O)c5ccc(C(C)(C)C)s5)C(=O)O)cc4)nc3)c(F)c2)CC1 [Compound 1362]
5.30 to 5.60 | CCc1ccc(/C(C)=C/c2cnc(-c3ccc(C[C@H](NC(=O)c4ccc(C(C)(C)C)s4)C(=O)N[C@H](C)C(=O)O)cc3)nc2)cc1 [Compound 1266]
5.30 to 5.60 | CC(C)CCCOc1ccc(-c2cnc(-c3ccc(C[C@H](NC(=O)Cc4csc(C(C)(C)C)n4)C(=O)N4CC(C(=O)O)C4)cc3)nc2)cc1 [Compound 1244]
> 6.10 | CC(C)(C)c1ccc(C(=O)N[C@@H](Cc2ccc(-c3ncc(-c4ccc(-c5ccc(C(F)(F)F)c(F)c5F)cc4F)cn3)cc2)C(=O)N2CC(C(=O)O)C2)s1 [Compound 1216]
5.60 to 6.10 | CCCc1ccc(C2CCN(c3cnc(-c4ccc(C[C@H](NC(=O)c5ccc(C(C)(C)C)s5)C(=O)N5CC(C(=O)O)C5)cc4)nc3)C2)cc1 (stereo partly drawn) [Compound 1504]
5.30 to 5.60 | CCCOc1ccc(C(=O)N[C@@H](Cc2ccc(-c3ncc(-c4ccc(OCCCC(C)C)cc4)cn3)cc2)C(=O)N2CC(C(=O)O)C2)cc1 [Compound 1235]
5.60 to 6.10 | CC[C@H]1CC[C@H](c2ccc(-c3cnc(-c4ccc(C[C@H](NC(=O)c5ccc(C(C)=O)cc5)C(=O)O)cc4)nc3)cc2)CC1 [Compound 1376]
5.60 to 6.10 | CC[C@H]1CC[C@H](c2ccc(-c3cnc(-c4ccc(C[C@H](NC(=O)c5ccc(CC(C)C)cc5)C(=O)O)cc4)nc3)cc2)CC1 [Compound 1383]
5.60 to 6.10 | Cc1cccc(/C=C/c2cnc(-c3ccc(C[C@H](NC(=O)c4ccc(C(C)(C)C)s4)C(=O)N[C@H](C)C(=O)O)cc3)nc2)c1 [Compound 1254]

same assay, conditions: dose response of compound in presence of fixed concentration of GLP-1(9-36), GLP-1R CRE-bla CHO-K1 cells, read-out: EC20 GLP-1(9-36) PAM EC50

Structure (SMILES) | pEC50
CCCCCCCOc1ccc(-c2cnc(-c3ccc(C[C@H](NC(=O)c4ccc(C(C)(C)C)cc4)C(=O)NCC(Cc4cccnc4)C(=O)O)cc3)nc2)cc1 (stereo partly drawn) [Compound 557] | > 6.10
CC(C)(C)c1ccc(C(=O)N[C@@H](Cc2ccc(-c3ncc(-c4ccc(-c5ccc(Cl)c(Cl)c5)cc4F)cn3)cc2)C(=O)N2CC(C(=O)O)C2)s1 [Compound 1200] | > 6.10
C[C@@H](NC(=O)[C@H](Cc1ccc(-c2ncc(-c3cc4ccccc4s3)cn2)cc1)NC(=O)c1ccc(C(C)(C)C)s1)C(=O)O [Compound 1024] | 5.60 to 6.10
CCCOc1ccc(-c2cnc(-c3ccc(C[C@H](NC(=O)c4ccc(C(C)(C)C)cc4)C(=O)N[C@H](C)C(=O)O)cc3)nc2)cc1 [Compound 722] | 5.60 to 6.10
Cc1cccc(NC(=O)c2cccc(-c3cnc(-c4ccc(C[C@H](NC(=O)c5ccc(C(C)(C)C)s5)C(=O)N[C@H](C)C(=O)O)cc4)nc3)c2)c1C [Compound 996] | 5.60 to 6.10
CCCCOc1cc(-c2cnc(-c3ccc(C[C@H](NC(=O)c4ccc(C(C)(C)C)s4)C(=O)N[C@H](C)C(=O)O)cc3)nc2)cc(Cl)c1OC(C)C [Compound 1039] | 5.60 to 6.10
CC(C)CCc1noc(-c2cnc(-c3ccc(C[C@H](NC(=O)c4ccc(C(C)(C)C)cc4)C(=O)NCCC(=O)O)cc3)nc2)n1 [Compound 749] | 5.60 to 6.10
CC(C)(C)c1ccc(C(=O)N[C@@H](Cc2ccc(-c3ncc(-c4ccc(OC5CCCC5)cc4)cn3)cc2)C(=O)NCCC(=O)O)cc1 [Compound 688] | 5.30 to 5.60
CCCCCCCOc1ccc(-c2cnc(-c3ccc(C[C@H](NC(=O)c4cc(C)cs4)C(=O)O)cc3)nc2)cc1 [Compound 470] | > 6.10
CCCCCCCc1ccc(-c2cnc(-c3ccc(C[C@H](NC(=O)c4ccc(C(C)(C)C)cc4)C(=O)NCCC(=O)O)cc3)nc2)cc1 [Compound 679] | 5.60 to 6.10
Cc1cc(-c2cnc(-c3ccc(C[C@H](NC(=O)c4ccc(C(C)(C)C)s4)C(=O)N4CC(C(=O)O)C4)cc3)nc2)ccc1OC(C)C [Compound 1093] | > 6.10
CCCCCCCOc1ccc(-c2cnc(-c3ccc(C[C@H](NC(=O)c4ccc(C(C)(C)C)s4)C(=O)N[C@H](CC)C(=O)O)cc3)nc2)cc1 [Compound 402] | > 6.10
CCCCCCCOc1ccc(-c2cnc(-c3ccc(C[C@H](NC(=O)c4ccc(C(C)(C)C)cc4)C(=O)NCC(C(=O)O)c4ccccc4)cc3)nc2)cc1 (stereo partly drawn) [Compound 556] | > 6.10
CC(C)(C)c1ccc(C(=O)N[C@@H](Cc2ccc(-c3ncc(-c4ccc(OC(F)(F)F)cc4)cn3)cc2)C(=O)NC(C(=O)O)C(O)c2ccccc2)s1 (stereo partly drawn) [Compound 927] | 5.30 to 5.60
CC(C)(C)c1ccc(-c2cnc(-c3ccc(C[C@H](NC(=O)c4ccc(C(C)(C)C)s4)C(=O)NC(C(=O)O)C(O)c4ccccc4)cc3)nc2)cc1 (stereo partly drawn) [Compound 932] | 5.30 to 5.60
CCCCCCCOc1ccc(-c2cnc(-c3ccc(C[C@H](NC(=O)c4ccc(C(C)(C)C)cc4)C(=O)NC(Cc4ccc(OC)cc4)C(=O)O)cc3)nc2)cc1 (stereo partly drawn) [Compound 568] | > 6.10
CC(C)(C)c1ccc(C(=O)N[C@@H](Cc2ccc(-c3ncc(-c4ccc(C(F)(F)F)cc4)cn3)cc2)C(=O)N2CC(C(=O)O)C2)s1 [Compound 788] | 5.00 to 5.30

Continued, values first:

pEC50 | Structure (SMILES)
> 6.10 | CCCCCCCOc1ccc(-c2cnc(-c3ccc(C[C@H](NC(=O)c4ccc(C(C)(C)C)s4)C(=O)NC(C(=O)O)c4cccc(S(C)(=O)=O)c4)cc3)nc2)cc1 (stereo partly drawn) [Compound 501]
5.30 to 5.60 | CCCCCCCOc1ccc(-c2cnc(-c3ccc(C[C@H](NC(=O)c4ccc(OC)cc4)C(=O)N4CC[C@H](C(=O)O)C4)cc3)nc2)cc1 [Compound 846]
> 6.10 | CCCCCCCOc1ccc(-c2cnc(-c3ccc(C[C@H](NC(=O)c4ccc(C(C)(C)C)s4)C(=O)NC(C(=O)O)c4cccs4)cc3)nc2)cc1 (stereo partly drawn) [Compound 600]
5.60 to 6.10 | CCCCCCCOc1ccc(-c2cnc(-c3ccc(C[C@H](NC(=O)c4ccc(CC)s4)C(=O)N4CC[C@H](C(=O)O)C4)cc3)nc2)cc1 [Compound 863]
5.60 to 6.10 | CCCCCCCOc1ccc(-c2cnc(-c3ccc(C[C@H](NC(=O)c4ccc(C(C)(C)C)s4)C(=O)N4CCC(CCC(=O)O)C4)cc3)nc2)cc1 (stereo partly drawn) [Compound 991]
5.60 to 6.10 | CCCCCCCOc1ccc(-c2cnc(-c3ccc(C[C@H](NC(=O)c4ccc(C(C)(C)C)cc4)C(=O)N4CCC4C(=O)O)cc3)nc2)cc1 (stereo partly drawn) [Compound 565]
5.60 to 6.10 | CCCCCCCOc1ccc(-c2cnc(-c3ccc(C[C@H](NC(=O)c4ccc(CC(C)C)cc4)C(=O)N4CC(C(=O)O)C4)cc3)nc2)cc1 [Compound 1116]
> 6.10 | CCCCCCCOc1ccc(-c2cnc(-c3ccc(C[C@H](NC(=O)c4ccc(C(C)(C)C)cc4)C(=O)N4CCC(O)C(C(=O)O)C4)cc3)nc2)cc1 (stereo partly drawn) [Compound 661]
> 6.10 | CCCCCCCOc1ccc(-c2cnc(-c3ccc(C[C@H](NC(=O)c4ccc(C(C)(C)C)cc4)C(=O)N[C@@H](CC(=O)NCC(N)=O)C(=O)O)cc3)nc2)cc1 [Compound 482]
> 6.10 | CCCCCCCOc1ccc(-c2cnc(-c3ccc(C[C@H](NC(=O)c4ccc(C(C)(C)C)cc4)C(=O)N[C@H](CO)C(=O)O)cc3)nc2)cc1 [Compound 417]
> 6.10 | CC(C)CCCCOc1ccc(-c2cnc(-c3ccc(C[C@H](NC(=O)c4ccc(C(C)(C)C)s4)C(=O)N[C@H](C)C(=O)O)cc3)nc2)cc1 [Compound 770]
> 6.10 | CCCCCCCOc1ccc(-c2cnc(-c3ccc(C[C@H](NC(=O)c4ccc(C(C)(C)C)s4)C(=O)N4CCC[C@H]4C(=O)N4CCCC4C(=O)O)cc3)nc2)cc1 (stereo partly drawn) [Compound 497]
5.60 to 6.10 | CCCCCCCOc1ccc(-c2cnc(-c3ccc(C[C@H](NC(=O)c4ccc(C(C)(C)C)nc4)C(=O)N4CCC[C@H]4C(=O)O)cc3)nc2)cc1 [Compound 1077]
> 6.10 | CCCCCCCOc1ccc(-c2cnc(-c3ccc(C[C@H](NC(=O)c4ccc(C(C)(C)C)s4)C(=O)N[C@@H](CC(=O)O)C(=O)N4CCCCC4)cc3)nc2)cc1 [Compound 529]
5.60 to 6.10 | CCCCCCCOc1ccc(-c2cnc(-c3ccc(C[C@H](NC(=O)c4cnn(C(C)(C)C)c4)C(=O)N4CCC[C@H]4C(=O)O)cc3)nc2)cc1 [Compound 1068]
> 6.10 | CCCCCCCOc1ccc(-c2cnc(-c3ccc(CC(NC(=O)c4ccc(C(C)(C)C)s4)C(=O)N4CC(C(=O)O)C4)cc3)nc2)cc1 (stereo not drawn) [Compound 431]
> 6.10 | CCCCCCCOc1ccc(-c2cnc(-c3ccc(C[C@H](NC(=O)c4ccc(C(C)(C)C)s4)C(=O)N[C@@H](CC(=O)O)C(=O)NCC(N)=O)cc3)nc2)cc1 [Compound 530]
> 6.10 | CCCCCCCOc1ccc(-c2cnc(-c3ccc(C[C@H](NC(=O)c4ccc(C(C)(C)C)cc4)C(=O)N[C@@H](Cc4ccc(O)cc4)C(=O)O)cc3)nc2)cc1 [Compound 451]
